What is called MIC is the lowest concentration found to suppress growth.

Consider three molecules from publication PMC6778101 (Nature Communications, 2019).

One data set relates to E. coli ATCC 25922. In kind it is cell-based, Escherichia coli. The following applies: Escherichia coli ATCC 25922; broth dilution, 37 °C, 18 h. Here is the method:
(§1) Unless otherwise indicated, we used E. coli K-12 BW25113 in all high-throughput experiments. To investigate the impact of mutation rate on evolution of AMP resistance, we initiated laboratory evolution with a mutator strain E. coli mutD5 that carries mutations in the dnaQ gene (L73W and A164V).
(§2) MICs were determined using a standard serial broth dilution technique. Briefly, 11-step serial dilutions were prepared in 96-well microtiter plates with three replicates per strain and antimicrobial compound. Each experiment was repeated at least twice. 5 × 10^5 cells/mL were inoculated into each well, and the plates were incubated at 30 °C in case of E. coli K-12 BW25113, and its antibiotic and AMP-adapted lines, or 37 °C in case of the other bacterial species. Plates were shaken at 300 r.p.m. during incubation for 24 and 18 h, respectively. Cell growth was monitored by measuring the optical density (OD600 value, Biotek Synergy 2 microplate reader was used for this purpose). […] Relative MIC was calculated as follows: MICrelative = MICevolved/MICcontrol.

In data set [1] the test system is S. enterica LT2. Type of data set: cell-based, Salmonella enterica subsp. enterica serovar Typhimurium. The following applies: broth dilution, 37 °C, 18 h. The protocol: as §1, §2
The next data set concerns Human red blood cells. Put plainly: Hemolysis assay. The settings on record: for ATI (activity/toxicity index), ratio MHC / MM: MHC on human red blood cells / median of MICs in E. coli K12. Type of data set: cell-based. Here is the method: Human red blood cells (hemoglobin concentration (Hb) 150–160 g L^−1) were collected from apparently healthy patients in EDTA tubes. 600 µL of EDTA-blood were washed in TBS buffer (10 mM TRIS, 150 mM NaCl) and centrifuged at 1500 × g for 1 min until the supernatant became colorless. The final pellet was diluted to 5 mL with TBS buffer. Hundred microliters of this cell suspension was pipetted into sterile Eppendorf tubes together with twofold serial dilutions of each compound to a final volume of 200 μl. Final concentrations ranged between 2500 µg mL^−1–9.75 µg mL^−1. Following incubation for one hour at 37 °C, samples were centrifuged at 1500 g for 1 min to precipitate the red blood cells. All supernatants were transferred to sterile 96-well plates for the measurement of their direct optical density (OD) at 565 nm wavelength (Multiskan FC microplate reader, Thermo Scientific). Melittin (Bachem) at concentration of 50 µg.mL^−1 and TBS were used as positive (100% hemolysis) and negative (no hemolysis) controls, respectively. Haemolytic effect of each peptide at each concentration was calculated as follows: Hemolysis effect = (Compound OD565nm − TBS OD565nm) × 100/(Melitin OD565nm − TBS OD565nm).

Data set [2] has as its system E. coli K-12 BW25113 bearing the metagenomic plasmid library. The data set is described as follows: Functional metagenomic screen of a soil library, gradient plate selection. Type of data set: cell-based, Escherichia coli.
In data set [3] the test system is S. enterica LT2. Put plainly: Laboratory evolution of resistance, MIC fold change of adapted lines. In kind it is cell-based, Salmonella enterica subsp. enterica serovar Typhimurium. The following applies: Salmonella enterica serovar Typhimurium LT2; parallel line 1 of 10. An excerpt:
The tested pathogens initially sensitive to the AMPs and the antibiotics included Escherichia coli (ATCC® 25922™) (abbreviated as E. coli ATCC 25922), Salmonella enterica subsp. enterica serovar Typhimurium LT2 (abbreviated as S. enterica LT2), Klebsiella pneumoniae subsp. pneumoniae (Schroeter) Trevisan (ATCC® 10031™) (abbreviated as K. pneumoniae ATCC 10031) and Acinetobacter baumannii Bouvet and Grimont (ATCC® 17978™) (abbreviated as A. baumannii ATCC 17978).
The evolutionary protocol was designed to avoid population extinction and to ensure that populations with the highest level of resistance were propagated further. Starting with a subinhibitory drug concentration (Supplementary Data 8), resulting in ~50% growth inhibition, 10 parallel populations per drug were allowed to grow in Minimal Salts medium for 72 h and 300 r.p.m. […] Prior to each transfer, cell growth was monitored by measuring the optical density at 600 nm (OD600 value, Biotek Synergy 2 microplate reader). […]
MICs were determined using a standard serial broth dilution technique. […] Cell growth was monitored by measuring the optical density (OD600 value, Biotek Synergy 2 microplate reader was used for this purpose). […] Relative MIC was calculated as follows: MICrelative = MICevolved/MICcontrol.

Another data set relates to E. coli mutD5. The data set is described as follows: Laboratory evolution of resistance in mutator strain, MIC fold change. In kind it is cell-based, Escherichia coli. The settings on record: for MIC fold change after the evolution: mutD5 mutator strain (*).
Excerpt: as §1
(§3) The evolutionary protocol was designed to avoid population extinction and to ensure that populations with the highest level of resistance were propagated further. Starting with a subinhibitory drug concentration (Supplementary Data 8), resulting in ~50% growth inhibition, 10 parallel populations per drug were allowed to grow in Minimal Salts medium for 72 h and 300 r.p.m. E. coli K-12 BW25113 and E. coli mutD5 populations were incubated at 30 °C, while E. coli ATCC 25922, S. enterica LT2, K. pneumonia ATCC 10031, and A. baumannii ATCC 17978 were incubated at 37 °C. […] Prior to each transfer, cell growth was monitored by measuring the optical density at 600 nm (OD600 value, Biotek Synergy 2 microplate reader). Only populations with the highest drug concentration (and reaching OD600 > 0.2) were selected for further evolution. A chess-board layout was used on the plate to monitor potential cross-contamination events. […] E. coli mutD5 was adapted to TPII, also in 10 parallel evolving populations.
as §2

For a further data set, the system named is E. coli K-12 BW25113. Put plainly: Laboratory evolution of resistance, MIC fold change of adapted lines. Type of data set: cell-based, Escherichia coli. The following applies: for MIC fold change following 20 transfers: Escherichia coli K-12 BW25113; for MIC fold change after the evolution: MIC evolved / MIC control, 20 transfers, ~120 generations.
Excerpt: Our first goal was to study resistance evolution against a set of AMPs and antibiotics. We have followed established protocols with minor modifications to evolve bacterial populations under controlled laboratory conditions[19],[20]. The applied protocol aims to maximize the level of drug resistance in the evolving populations achieved during a fixed time period. We have initiated a laboratory evolution experiment, starting with a single clone of Escherichia coli K-12 BW25113 (abbreviated as E. coli K-12 BW25113). Parallel evolving populations were exposed to increasing concentrations of one of 14 AMPs (Supplementary Table 1). Peptides were chosen based on the following criteria: diverse sources (synthetic/natural), different putative mechanisms of action, structural diversity, and clinical relevance. Another set of populations were exposed to one of 12 clinically relevant antibiotics (Supplementary Table 2), using the same protocol. Accordingly, we have propagated 10 independent populations in the presence of each AMP or antibiotic for ∼120 generations. We isolated a single, representative clone from each population, resulting in 140 AMP-adapted lines and 120 antibiotic-adapted lines. Throughout the paper, we compare the level of resistance in the evolved lines to the corresponding wild-type strain by measuring changes in the drugs’ minimum inhibitory concentrations (MIC).
as §3, §2

Setting [4] is: parallel line 1 of 10 adapted to the agent.

“Also recorded” adds a separate entry of the source. Where two headings read alike, the source gives them in different places. Ends that are not written are not given here. Peptide text beside a SMILES is read from it.

As for “SWLSKTAKKLENSAKKRISEGIAIAIQGGPR [CP1, Cecropin P1]”, the MIC in the data set with E. coli ATCC 25922 is 1.2 µM; in the data set on S. enterica LT2 [1] (Salmonella enterica subsp. enterica serovar Typhimurium LT2), 1.2 to 2.4 µM. Besides, the “ATI (activity/toxicity index), ratio MHC / MM” value in the data set on Human red blood cells is given as over 847.45. In addition, the “MHC (minimum haemolytic concentration, concentration causing 10% haemolysis)” value with Human red blood cells (human red blood cells, 1 h, 37 °C) is over 2500 µg/mL.

Regarding `CC[C@H](C)[C@@H]1NC(=O)CNC(=O)[C@H](CCCNC(=N)N)NC(=O)[C@H](Cc2ccc(O)cc2)NC(=O)[C@@H]2CSSC[C@H](NC1=O)C(=O)N[C@@H](Cc1ccc(O)cc1)C(=O)N[C@@H](CCCNC(=N)N)C(=O)N[C@@H](CCCCN)C(=O)N[C@H](C(=O)N[C@@H](CCCNC(=N)N)C(N)=O)CSSC[C@H](NC(=O)[C@H](Cc1c[nH]c3ccccc13)NC(=O)[C@@H](N)CCCNC(=N)N)C(=O)N[C@@H](Cc1ccccc1)C(=O)N[C@@H](CCCNC(=N)N)C(=O)N[C@@H](C(C)C)C(=O)N2` [TPII, tachyplesin II] (HELM PEPTIDE1{R.W.C.F.R.V.C.Y.R.G.I.C.Y.R.K.C.R.[am]}$PEPTIDE1,PEPTIDE1,3:R3-16:R3|PEPTIDE1,PEPTIDE1,7:R3-12:R3$$$V2.0; N-terminus and C-terminus assumed; bridges inferred), the “resistant clones / resistance-conferring DNA segments from the soil metagenomic library (in words)” value in data set [2] is “failed to find DNA segments that would provide resistance”. For the same molecule, in data set [2] (soil metagenomic library, 1.5–5 kb fragments, gradient plate, 30 °C, 24 h), the “Number of resistant contig” value is 0. Moreover, the “MIC fold change following 20 transfers” value is given as 1.0 fold in the data set on S. enterica LT2 [3]; 1.4 fold with E. coli mutD5 (Escherichia coli mutD5 mutator strain, parallel line 1 of 10); 1.0 fold in the data set on E. coli K-12 BW25113 (setting [4]). The MIC with S. enterica LT2 [1] (starting strain, MS medium) was found to be 4 µg/mL. The “resistance in evolved mutator populations (in words)” value in the data set on E. coli mutD5 (10 laboratory evolved E. coli K-12 mutD5 populations) is “none of the 10 laboratory evolved mutator E. coli K-12 mutD5 populations displayed resistance; also recorded: failed to develop resistance”. Also, the “MIC fold change after the evolution” value in the data set with E. coli mutD5 (parallel-evolved line 1), in the data set with E. coli mutD5 (parallel-evolved line 2), with E. coli mutD5 (parallel-evolved line 3), in the data set with E. coli mutD5 (parallel-evolved line 4), with E. coli mutD5 (parallel-evolved line 5) and in the data set on E. coli mutD5 (parallel-evolved line 6) was 1 each time. The “MIC fold change after the evolution” value with E. coli mutD5 (parallel-evolved line 7), in the data set on E. coli mutD5 (parallel-evolved line 8), in the data set on E. coli mutD5 (parallel-evolved line 9), in the data set with E. coli mutD5 (parallel-evolved line 10), in the data set on E. coli K-12 BW25113 (parallel-evolved line 1) and in the data set on E. coli K-12 BW25113 (parallel-evolved line 2) was 1 in each case. In addition, the “MIC fold change after the evolution” value in the data set with E. coli K-12 BW25113 (parallel-evolved line 3), in the data set on E. coli K-12 BW25113 (parallel-evolved line 4), in the data set on E. coli K-12 BW25113 (parallel-evolved line 5), in the data set on E. coli K-12 BW25113 (parallel-evolved line 6), in the data set on E. coli K-12 BW25113 (parallel-evolved line 7) and in the data set on E. coli K-12 BW25113 (parallel-evolved line 8) was 1 in each case. Also, the “MIC fold change after the evolution” value in the data set with E. coli K-12 BW25113 (parallel-evolved line 9) and in the data set on E. coli K-12 BW25113 (parallel-evolved line 10) was 1 in each case. Moreover, the “ATI (activity/toxicity index), ratio MHC / MM” value in the data set on Human red blood cells amounted to 155.22. Also, the “average MIC fold change after the evolution” value with E. coli K-12 BW25113 (average of MIC fold change of the 10 independently adapted populations) worked out at 1.000. Moreover, the “resistance in evolved lines after laboratory evolution (in words)” value with E. coli K-12 BW25113 (~120 generations under increasing drug concentration) is “failed to detect any resistance”.

Consider `NC[C@H]1O[C@H](O[C@H]2[C@H](O)[C@@H](O[C@H]3O[C@H](CO)[C@@H](O)[C@H](N)[C@H]3O)[C@H](N)C[C@@H]2N)[C@H](O)[C@@H](O)[C@@H]1O` [KAN, Kanamycin], for which the “MIC fold change following 20 transfers” value was 256 fold in the data set on E. coli K-12 BW25113 (setting [4]); 256 fold in the data set with E. coli K-12 BW25113 (parallel line 2 of 10 adapted to the agent); 177 fold with E. coli K-12 BW25113 (parallel line 3 of 10 adapted to the agent); 177 fold in the data set with E. coli K-12 BW25113 (parallel line 4 of 10 adapted to the agent); 93 fold in the data set on E. coli K-12 BW25113 (parallel line 5 of 10 adapted to the agent); 256 fold with E. coli K-12 BW25113 (parallel line 6 of 10 adapted to the agent). Further, the “MIC fold change following 20 transfers” value in the data set with E. coli K-12 BW25113 (parallel line 7 of 10 adapted to the agent) stood at 256 fold; in the data set on E. coli K-12 BW25113 (parallel line 8 of 10 adapted to the agent) it was 49 fold; with E. coli K-12 BW25113 (parallel line 9 of 10 adapted to the agent), 177 fold; with E. coli K-12 BW25113 (parallel line 10 of 10 adapted to the agent), 93 fold. In addition, the “MIC fold change after the evolution” value with E. coli K-12 BW25113 (parallel-evolved line 1) is 256; in the data set on E. coli K-12 BW25113 (parallel-evolved line 2) it was 256; in the data set with E. coli K-12 BW25113 (parallel-evolved line 3) it was 177; in the data set on E. coli K-12 BW25113 (parallel-evolved line 4), 177; in the data set with E. coli K-12 BW25113 (parallel-evolved line 5), 93; in the data set with E. coli K-12 BW25113 (parallel-evolved line 6), 256. Also, the “MIC fold change after the evolution” value in the data set on E. coli K-12 BW25113 (parallel-evolved line 7) is given as 256; with E. coli K-12 BW25113 (parallel-evolved line 8), 49; in the data set on E. coli K-12 BW25113 (parallel-evolved line 9), 177; in the data set with E. coli K-12 BW25113 (parallel-evolved line 10) it was 93.
